The record followed here is US20210024499A1, “OXIDIZED BIS(3-INDOLYL)METHANES AND USES THEREOF” (Sanford Burnam Prebys Medical Discovery Institute, priority 2018, published 2021).

Broadly, the IC50 is the midpoint of a concentration-inhibition curve.

Molecules are shown by their SMILES.

Format in all cases: cell-based
For test [1], the system named is mTOR markers p-S6 and p-4EBP1. The test is described as follows: mTOR inhibition: expression of mTOR markers. As to conditions: MDA-MB-231 cells, 1 μM, 6 hours.
In the next test the test system is MDA-MB-231 cells. As to the kind of experiment: PARP cleavage assay (Western blotting), MDA-MB-231. The conditions noted are these: 6 hours. The source says:
Compound 1a had no effect under the same conditions (FIG. 1A). […] Compound 1a, 28a, 47a, 48a, 73a, 39a, 70a, 103a, 89a and 88a had no effect under the same conditions (FIG. 3B-C).
(In western blotting, separated proteins are transferred to a membrane and probed.)

Another test has as its system HCT116 cancer cells. The test is described as follows: Cell viability (MTT) assay, HCT116. As to conditions: Homo sapiens, HCT-116; inhibiting the growth of HCT116 cancer cells, cell viability assay (Table 5). On the procedure:
(§1) Cell viability was analyzed by using a colorimetric 3-(4,5-dimethylthiazol-[…]2-yl)-2,5-diphenyletetrazolium Bromide (MTT) assay that determines mitochondrial dehydrogenase activities in the living cells with a colorimetric method. Cells treated with test compounds were incubated with MTT and their effect on the viability of the cells was assayed by the ability of treated cells to reduce the yellow tetrazolium dye MTT to its insoluble formazan, which has a purple color. […]

A further test relates to MDA-MB-231 cancer cells. As to the kind of experiment: Cell viability (MTT) assay, MDA-MB-231. The conditions noted are these: Homo sapiens; inhibiting the growth of MDA-MB-231 cancer cells, cell viability assay (Table 6). The protocol:
as §1

Turning to `Cl.Fc1ccc2c([C+](c3ccc(C(F)(F)F)cc3)c3c[nH]c4cc(F)ccc34)c[nH]c2c1` [Compound 22, Bis(6-fluoro-1H-indol-3-yl)(4-(trifluoromethyl)phenyl)methylium chloride], the “expression levels of mTOR markers p-S6 and p-4EBP1” value in test [1] is on record as “reduced the expression levels”. Moreover, in the test on MDA-MB-231 cells (1 μM), the PARP cleavage result is on record as “effectively induce PARP cleavage”.

Take `Fc1cccc2[nH]cc([C+](c3ccc(C(F)(F)F)cc3)c3c[nH]c4cccc(F)c34)c12.[Cl-]` [Compound 43, Bis(4-fluoro-1H-indol-3-yl)(4-(trifluoromethyl)phenyl)methylium chloride]: the “expression levels of mTOR markers p-S6 and p-4EBP1” value in test [1] is “reduced the expression levels”. Moreover, the PARP cleavage entry in the test with MDA-MB-231 cells (1 μM) is reported as “effectively induce PARP cleavage”.

Take `FC(F)(F)c1ccc([C+](c2c[nH]c3cc(Cl)ccc23)c2c[nH]c3cc(Cl)ccc23)cc1` [Compound 24, Bis(6-chloro-1H-indol-3-yl)(4-(trifluoromethyl)phenyl)methylium methanesulfonate]: the “expression levels of mTOR markers p-S6 and p-4EBP1” value in test [1] is listed as “reduced the expression levels”. Moreover, the PARP cleavage result in the test with MDA-MB-231 cells (1 μM) was “effectively induce PARP cleavage”.

On to `Fc1ccc2c([C+](c3ccc(C(F)(F)F)cc3)c3c[nH]c4ccccc34)c[nH]c2c1.[Cl-]` [Compound 70, (6-Fluoro-1H-indol-3-yl)(1H-indol-3-yl)(4-(trifluoromethyl)phenyl)methylium chloride], for which the half-maximal inhibitory concentration (IC50) in the test on HCT116 cancer cells and in the test with MDA-MB-231 cancer cells was below 500 nM in each case. In addition, the PARP cleavage entry in the test with MDA-MB-231 cells (0.5 μM) is “effectively induced PARP cleavage”.

For `Fc1cccc2c([C+](c3ccc(C(F)(F)F)cc3)c3c[nH]c4c(F)cccc34)c[nH]c12.[Cl-]` [Compound 62, Bis(7-fluoro-1H-indol-3-yl)(4-(trifluoromethyl)phenyl)methylium chloride], the “expression levels of mTOR markers p-S6 and p-4EBP1” value in test [1] was “reduced the expression levels”. Besides, the PARP cleavage entry in the test with MDA-MB-231 cells (1 μM) is on record as “effectively induce PARP cleavage”.

As for `Oc1ccc2[nH]cc([C+](c3ccc(C(F)(F)F)cc3)c3c[nH]c4ccc(O)cc34)c2c1.[Cl-]` [Compound 46, Bis(5-hydroxy-1H-indol-3-yl)(4-(trifluoromethyl)phenyl)methylium chloride], the “expression levels of mTOR markers p-S6 and p-4EBP1” value in test [1] was “reduced the expression levels”. Moreover, the PARP cleavage entry in the test with MDA-MB-231 cells (1 μM) is on record as “effectively induce PARP cleavage”.

`Cn1cc([C+](c2ccc(C(F)(F)F)cc2)c2c[nH]c3ccccc23)c2ccc(F)cc21.[Cl-]` [Compound 88, (6-Fluoro-1-methyl-1H-indol-3-yl)(1H-indol-3-yl)(4-(trifluoromethyl)phenyl)-methylium chloride]: the IC50 in the test with HCT116 cancer cells and in the test on MDA-MB-231 cancer cells was below 500 nM throughout. The PARP cleavage entry in the test on MDA-MB-231 cells (0.5 μM) is on record as “effectively induced PARP cleavage”.

With `Cn1cc([C+](c2ccc(C(F)(F)F)cc2)c2cn(C)c3ccccc23)c2ccccc21` [Compound 11, Bis(1-methyl-1H-indol-3-yl)(4-(trifluoromethyl)phenyl)methylium methanesulfonate], in test [1], the “expression levels of mTOR markers p-S6 and p-4EBP1” value was “reduced the expression levels”. Besides, the PARP cleavage result in the test on MDA-MB-231 cells (1 μM) is listed as “effectively induce PARP cleavage”.

Regarding `Fc1cccc2c([C+](c3ccc(C(F)(F)F)cc3)c3c[nH]c4ccccc34)c[nH]c12.[Cl-]` [Compound 71, (7-Fluoro-1H-indol-3-yl)(1H-indol-3-yl)(4-(trifluoromethyl)phenyl)methylium chloride], in test [1], the “expression levels of mTOR markers p-S6 and p-4EBP1” value is listed as “reduced the expression levels”. Also, the IC50 in the test with HCT116 cancer cells and in the test on MDA-MB-231 cancer cells was below 500 nM throughout. In addition, the PARP cleavage entry in the test with MDA-MB-231 cells (1 μM) is recorded as “effectively induce PARP cleavage”.

With `CCn1cc([C+](c2ccc(C(F)(F)F)cc2)c2c[nH]c3ccccc23)c2ccccc21.[Cl-]` [Compound 47, (1-Ethyl-1H-indol-3-yl)(1H-indol-3-yl)(4-(trifluoromethyl)phenyl)methylium chloride], the IC50 in the test on HCT116 cancer cells and in the test with MDA-MB-231 cancer cells was below 500 nM in each case. Besides, in the test on MDA-MB-231 cells (0.5 μM), the PARP cleavage result is given as “effectively induced PARP cleavage”.

Take `FC(F)(F)c1ccc([C+](c2c[nH]c3cc(Cl)ccc23)c2c[nH]c3cc(Cl)ccc23)cc1.[Cl-]` [Compound 67, Bis(6-chloro-1H-indol-3-yl)(4-(trifluoromethyl)phenyl)methylium chloride]: in test [1], the “expression levels of mTOR markers p-S6 and p-4EBP1” value was “reduced the expression levels”. Also, in the test on MDA-MB-231 cells (1 μM), the PARP cleavage entry was “effectively induce PARP cleavage”.

As for `Cc1ccc2[nH]cc([C+](c3ccc(C(F)(F)F)cc3)c3c[nH]c4ccccc34)c2c1.[Cl-]` [Compound 57, (5-Methyl-1H-indol-3-yl)(1H-indol-3-yl)(4-(trifluoromethyl)phenyl)methylium chloride], the “expression levels of mTOR markers p-S6 and p-4EBP1” value in test [1] is recorded as “reduced the expression levels”. Further, the PARP cleavage entry in the test with MDA-MB-231 cells (1 μM) is “effectively induce PARP cleavage”.

Consider `Cc1cccc2c([C+](c3ccc(C(F)(F)F)cc3)c3c[nH]c4ccccc34)c[nH]c12.[Cl-]` [Compound 55, (7-Methyl-1H-indol-3-yl)(1H-indol-3-yl)(4-(trifluoromethyl)phenyl)methylium chloride], for which, in test [1], the “expression levels of mTOR markers p-S6 and p-4EBP1” value is reported as “reduced the expression levels”. Also, the PARP cleavage entry with MDA-MB-231 cells (1 μM) is listed as “effectively induce PARP cleavage”.

Turning to `Fc1ccc2c([C+](c3ccc(C(F)(F)F)cc3)c3c[nH]c4cc(F)ccc34)c[nH]c2c1` [Compound 21, Bis(6-fluoro-1H-indol-3-yl)(4-(trifluoromethyl)phenyl)methylium methanesulfonate], the “expression levels of mTOR markers p-S6 and p-4EBP1” value in test [1] is “reduced the expression levels”. Also, in the test with MDA-MB-231 cells (1 μM), the PARP cleavage entry was “effectively induce PARP cleavage”.

Take `Fc1cccc2[nH]cc([C+](c3ccc(C(F)(F)F)cc3)c3c[nH]c4ccccc34)c12.[Cl-]` [Compound 72, (4-Fluoro-1H-indol-3-yl)(1H-indol-3-yl)(4-(trifluoromethyl)phenyl)methylium chloride]: the “expression levels of mTOR markers p-S6 and p-4EBP1” value in test [1] is recorded as “reduced the expression levels”. Further, the PARP cleavage entry in the test with MDA-MB-231 cells (1 μM) was “effectively induce PARP cleavage”.

As to `Fc1cc([C+](c2c[nH]c3ccccc23)c2c[nH]c3ccccc23)ccc1C(F)(F)F.[Cl-]` [Compound 103, (3-Fluoro-4-(trifluoromethyl)phenyl)di(1H-indol-3-yl)methylium chloride], the IC50 in the test with HCT116 cancer cells and in the test on MDA-MB-231 cancer cells was below 500 nM each time. Moreover, the PARP cleavage entry in the test on MDA-MB-231 cells (0.5 μM) is on record as “effectively induced PARP cleavage”.

On to `Cn1cc([C+](c2ccc(C(F)(F)F)cc2)c2c[nH]c3c(F)cccc23)c2ccccc21.[Cl-]` [Compound 89, (7-Fluoro-1H-indol-3-yl)(1-methyl-1H-indol-3-yl)(4-(trifluoromethyl)phenyl)-methylium chloride], for which the IC50 in the test on HCT116 cancer cells and in the test on MDA-MB-231 cancer cells was below 500 nM throughout. For the same compound, in the test on MDA-MB-231 cells (0.5 μM), the PARP cleavage result is “effectively induced PARP cleavage”.

`Fc1ccc2[nH]cc([C+](c3ccc(C(F)(F)F)cc3)c3c[nH]c4ccc(F)cc34)c2c1` [Compound 10, Bis(5-fluoro-1H-indol-3-yl)(4-(trifluoromethyl)phenyl)methylium methanesulfonate]: in test [1], the “expression levels of mTOR markers p-S6 and p-4EBP1” value is recorded as “reduced the expression levels”. In the test on MDA-MB-231 cells (1 μM), the PARP cleavage result is “effectively induce PARP cleavage”.

As for `Cc1ccc2[nH]cc([C+](c3ccc(C(F)(F)F)cc3)c3c[nH]c4ccc(C)cc34)c2c1` [Compound 15, Bis(5-methyl-1H-indol-3-yl)(4-(trifluoromethyl)phenyl)methylium methanesulfonate], the “expression levels of mTOR markers p-S6 and p-4EBP1” value in test [1] is listed as “reduced the expression levels”. Besides, in the test with MDA-MB-231 cells (1 μM), the PARP cleavage result is given as “effectively induce PARP cleavage”.

Consider `Cc1ccc2c([C+](c3ccc(C(F)(F)F)cc3)c3c[nH]c4ccccc34)c[nH]c2c1.[Cl-]` [Compound 54, (6-Methyl-1H-indol-3-yl)(1H-indol-3-yl)(4-(trifluoromethyl)phenyl)methylium chloride], for which the “expression levels of mTOR markers p-S6 and p-4EBP1” value in test [1] is on record as “reduced the expression levels”. Also, the PARP cleavage result in the test with MDA-MB-231 cells (1 μM) was “effectively induce PARP cleavage”.

Turning to `Cc1ccc2c([C+](c3ccc(C(F)(F)F)cc3)c3c[nH]c4cc(C)ccc34)c[nH]c2c1` [Compound 18, Bis(6-methyl-1H-indol-3-yl)(4-(trifluoromethyl)phenyl)methylium chloride], the “expression levels of mTOR markers p-S6 and p-4EBP1” value in test [1] was “reduced the expression levels”. In addition, the PARP cleavage result in the test with MDA-MB-231 cells (1 μM) is “effectively induce PARP cleavage”.

For the compound `CCCCn1cc([C+](c2ccc(C(F)(F)F)cc2)c2c[nH]c3ccccc23)c2ccccc21.[Cl-]` [Compound 49, (1-Butyl-1H-indol-3-yl)(1H-indol-3-yl)(4-(trifluoromethyl)phenyl)methylium chloride], the “expression levels of mTOR markers p-S6 and p-4EBP1” value in test [1] was “reduced the expression levels”. In addition, in the test with MDA-MB-231 cells (1 μM), the PARP cleavage result was “effectively induce PARP cleavage”.

For the compound `FC(F)(F)c1ccc([C+](c2cn(-c3ccccc3)c3ccccc23)c2cn(-c3ccccc3)c3ccccc23)cc1.[Cl-]` [Compound 74, Bis(1-phenyl-1H-indol-3-yl)(4-(trifluoromethyl)phenyl)methylium chloride], in test [1], the “expression levels of mTOR markers p-S6 and p-4EBP1” value is given as “reduced the expression levels”. The PARP cleavage entry in the test on MDA-MB-231 cells (1 μM) was “effectively induce PARP cleavage”.
